The results in this text go back to patent US10669272B2, “Substituted naphthyridinone compounds useful as T cell activators” (BRISTOL-MYERS SQUIBB COMPANY, priority 2018, dated 2020).

Molecules are shown by their SMILES. Read-outs that look alike come from different tables or passages of the source.

Usually EC50 stands for the concentration that produces a half-maximal response. Broadly, the IC50 is the concentration needed to halve the response being measured.

One test relates to Human venous whole blood. The test is described as follows: Human whole blood IFN-γ assay.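 Further: blood from healthy donors exposed to compound for 1 h before stimulation with anti-CD3 and anti-CD28 at 1 µg/mL each, IFN-γ quantified in supernatant by AlphaLISA.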 The test is classed as cell-based. The settings on record: human whole blood, normalized to 3 μM reference compound with anti-CD3 plus anti-CD28 as 100% activation, read-out: INFg Whole Blood Normalized Agonist EC50.
The target of a further test is T1, human DGKα (Homo sapiens, UniProt P23743).
T1 construct: TVMV protease cleavage site (C); Hexa-His (C); made in house; host or cells: Sf9 insect cells (baculovirus, Bac-to-Bac)
The experiment in a line: DGKα LIPGLO assay (extruded liposome substrate), in vitro DGK inhibition. In kind it is biochemical. The settings on record: liposome (LIPGLO) assay; read-out: DGKa LIPGLO IC50.

In another test the target is T2, human DGKζ (Homo sapiens, UniProt Q13574).
T2 construct: TVMV protease cleavage site (C); Hexa-His (C); made in house; host or cells: Sf9 insect cells (baculovirus, Bac-to-Bac)
The test is described as follows: DGKζ LIPGLO assay (extruded liposome substrate), in vitro DGK inhibition. The test is classed as biochemical. The settings on record: liposome (LIPGLO) assay; read-out: DGKz LIPGLO IC50.

T1 sequence (P23743 with tags, fused parts or gaps): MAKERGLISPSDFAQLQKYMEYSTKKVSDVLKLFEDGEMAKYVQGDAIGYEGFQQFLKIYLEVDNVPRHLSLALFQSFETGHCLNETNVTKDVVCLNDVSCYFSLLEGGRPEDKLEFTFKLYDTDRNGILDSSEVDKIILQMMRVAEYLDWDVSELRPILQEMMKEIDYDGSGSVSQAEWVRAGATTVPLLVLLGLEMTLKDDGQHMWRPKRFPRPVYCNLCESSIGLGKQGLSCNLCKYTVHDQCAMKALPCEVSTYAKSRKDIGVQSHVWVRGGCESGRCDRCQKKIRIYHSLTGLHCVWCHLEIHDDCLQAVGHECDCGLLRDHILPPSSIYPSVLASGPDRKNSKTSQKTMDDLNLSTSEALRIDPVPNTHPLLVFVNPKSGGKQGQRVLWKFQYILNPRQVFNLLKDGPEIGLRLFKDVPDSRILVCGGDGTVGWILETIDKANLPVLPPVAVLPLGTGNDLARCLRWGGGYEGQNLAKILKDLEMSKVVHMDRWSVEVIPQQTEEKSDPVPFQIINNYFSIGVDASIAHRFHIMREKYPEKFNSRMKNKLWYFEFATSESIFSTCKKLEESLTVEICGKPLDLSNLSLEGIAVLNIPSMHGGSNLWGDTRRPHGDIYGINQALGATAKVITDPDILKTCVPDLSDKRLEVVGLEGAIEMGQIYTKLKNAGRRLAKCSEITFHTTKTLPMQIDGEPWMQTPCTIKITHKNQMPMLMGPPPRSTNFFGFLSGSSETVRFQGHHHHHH
T2 sequence (Q13574 with tags, fused parts or gaps isoform Q13574-4): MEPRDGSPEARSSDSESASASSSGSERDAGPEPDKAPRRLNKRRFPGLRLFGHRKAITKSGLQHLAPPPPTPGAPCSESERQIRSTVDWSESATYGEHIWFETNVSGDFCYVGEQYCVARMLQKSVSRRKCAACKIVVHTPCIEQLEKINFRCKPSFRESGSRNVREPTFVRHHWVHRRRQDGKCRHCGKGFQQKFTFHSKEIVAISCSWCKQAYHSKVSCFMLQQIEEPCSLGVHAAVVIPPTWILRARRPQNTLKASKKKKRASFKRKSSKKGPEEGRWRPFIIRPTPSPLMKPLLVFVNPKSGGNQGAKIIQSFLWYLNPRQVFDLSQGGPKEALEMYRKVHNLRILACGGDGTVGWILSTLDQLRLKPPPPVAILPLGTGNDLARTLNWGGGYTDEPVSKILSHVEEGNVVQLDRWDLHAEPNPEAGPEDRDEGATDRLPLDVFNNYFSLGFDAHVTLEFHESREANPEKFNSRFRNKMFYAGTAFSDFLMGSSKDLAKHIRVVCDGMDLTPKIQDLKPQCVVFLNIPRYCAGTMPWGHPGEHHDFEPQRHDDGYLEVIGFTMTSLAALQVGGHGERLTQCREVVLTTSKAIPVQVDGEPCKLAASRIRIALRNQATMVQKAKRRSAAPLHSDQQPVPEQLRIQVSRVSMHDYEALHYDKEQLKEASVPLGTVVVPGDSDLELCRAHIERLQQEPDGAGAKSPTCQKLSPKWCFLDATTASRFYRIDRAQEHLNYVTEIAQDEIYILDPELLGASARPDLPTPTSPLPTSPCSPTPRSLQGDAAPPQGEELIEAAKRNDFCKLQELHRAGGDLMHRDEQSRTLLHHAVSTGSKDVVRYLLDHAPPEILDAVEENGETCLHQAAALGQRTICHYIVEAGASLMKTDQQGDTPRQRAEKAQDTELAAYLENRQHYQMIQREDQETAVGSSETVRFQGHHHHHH
Procedure for Human venous whole blood: Human Whole Blood IFN-γ Assay
Human venous whole blood (22.5 μL per well), obtained from healthy donors, was pre-treated with compounds for one hour at 37° C. in a humidified 95% air/5% CO2 incubator. The blood was stimulated with 2.5 μL anti-human CD3 and anti-CD28 mAb at a final concentration of 1 μg/mL each for 24 hours at 37° C. IFN-γ in the supernatants was measured using AlphLISA kit (Cat # AL217).

As for `CC(c1ccc(C2(C#N)CC2)cc1F)N1C[C@H](C)N(c2cc(=O)n(C)c3ccc(C#N)nc23)C[C@H]1C` (single isomer, unassigned) [Example 1252], in the test with Human venous whole blood (Homo sapiens, 24 h), the EC50 came to 7.7 µM. Further, the IC50 on human DGKα amounted to 5700 nM; on human DGKζ, 3100 nM.
`CC(c1ccc(F)c(Cl)c1)N1C[C@H](C)N(c2cc(=O)n(C)c3ccc(C#N)nc23)C[C@H]1C` (single isomer, unassigned) [Example 1256]: in the test on Human venous whole blood, the EC50 came out at 0.48 µM. Also, the IC50 on human DGKα came to 680 nM; on human DGKζ it was 180 nM.
In the same order, the values of `CC(c1ccc(F)c(Cl)c1)N1C[C@H](C)N(c2cc(=O)n(C)c3ccc(C#N)nc23)C[C@H]1C` (single isomer, unassigned) [Example 1257] are 1.7 µM, 7900 nM and 1100 nM.
As for `CC(c1ccc2c(c1)OCCO2)N1C[C@H](C)N(c2cc(=O)n(C)c3ccc(C#N)nc23)C[C@H]1C` (single isomer, unassigned) [Example 1258], the EC50 in the test with Human venous whole blood (Homo sapiens, 24 h) turned out to be 2.6 µM. The IC50 at human DGKα was found to be 2200 nM; on human DGKζ, 15 nM.
Regarding `CC(c1ccc2c(c1)OCCO2)N1C[C@H](C)N(c2cc(=O)n(C)c3ccc(C#N)nc23)C[C@H]1C` (single isomer, unassigned) [Example 1259], in the test with Human venous whole blood, the EC50 amounted to 4.9 µM. Also, the IC50 at human DGKα amounted to 5600 nM; on human DGKζ, 670 nM.
Take `CC(c1cccc(OC(F)(F)F)c1)N1C[C@H](C)N(c2cc(=O)n(C)c3ccc(C#N)nc23)C[C@H]1C` (single isomer, unassigned) [Example 1267]: in the test on Human venous whole blood (Homo sapiens, 24 h), the EC50 is 0.73 µM. Besides, the IC50 on human DGKα amounted to 3500 nM; at human DGKζ it was 110 nM.
On the same counts, the results for `CC(c1cccc(OC(F)(F)F)c1)N1C[C@H](C)N(c2cc(=O)n(C)c3ccc(C#N)nc23)C[C@H]1C` (single isomer, unassigned) [Example 1268] are 5.2 µM, 2100 nM and 1000 nM.
Consider `CC(c1ccc(OC(F)(F)F)c(F)c1)N1C[C@H](C)N(c2cc(=O)n(C)c3ccc(C#N)nc23)C[C@H]1C` (single isomer, unassigned) [Example 1269], for which the EC50 in the test on Human venous whole blood was determined as 0.54 µM. For the same compound, the values for the IC50 on human DGKα and on human DGKζ were 120 nM and 470 nM, respectively.
In the same order, the values of `CC(c1ccc(OC(F)(F)F)c(F)c1)N1C[C@H](C)N(c2cc(=O)n(C)c3ccc(C#N)nc23)C[C@H]1C` (single isomer, unassigned) [Example 1270] are 8 µM, 1700 nM and 2700 nM.
As for `CC(c1csc(C(F)(F)F)n1)N1C[C@H](C)N(c2cc(=O)n(C)c3ccc(C#N)nc23)C[C@H]1C` (single isomer, unassigned) [Example 1273], in the test with Human venous whole blood (Homo sapiens, 24 h), the EC50 came to 1.7 µM. Further, the results for the IC50 on human DGKα and at human DGKζ were 180 nM and 360 nM, respectively.
As for `COCC(c1ccc(C(F)(F)F)cn1)N1C[C@H](C)N(c2cc(=O)n(C)c3ccc(C#N)nc23)C[C@H]1C` (single isomer, unassigned) [Example 1277], the EC50 in the test with Human venous whole blood (Homo sapiens, 24 h) was found to be 1.4 µM. The IC50 was 69 nM at human DGKα and 610 nM on human DGKζ.
Take `COCC(c1ccc(C(F)(F)F)cn1)N1C[C@H](C)N(c2cc(=O)n(C)c3ccc(C#N)nc23)C[C@H]1C` (single isomer, unassigned) [Example 1278]: in the test on Human venous whole blood, the EC50 came out at 2 µM. Further, the half-inhibitory concentration (IC50) on human DGKα came to 220 nM; at human DGKζ it was 400 nM.
Take `C[C@@H]1CN(c2cc(=O)n(C)c3ccc(C#N)nc23)[C@@H](C)CN1C(CO)c1ccc(C(F)(F)F)cn1` (single isomer, unassigned) [Example 1280]: in the test on Human venous whole blood (Homo sapiens, 24 h), the EC50 worked out at 9.9 µM. In addition, the IC50 on human DGKα was determined as 1300 nM; on human DGKζ, 8500 nM.
For `CC(c1cc(C2CC2)on1)N1C[C@H](C)N(c2cc(=O)n(C)c3ccc(C#N)nc23)C[C@H]1C` (single isomer, unassigned) [Example 1281], the EC50 in the test on Human venous whole blood turned out to be 1.6 µM. Also, the IC50 on human DGKα was 490 nM; on human DGKζ, 1100 nM.
In the same order, the values of `CC(c1cc(C2CC2)on1)N1C[C@H](C)N(c2cc(=O)n(C)c3ccc(C#N)nc23)C[C@H]1C` (single isomer, unassigned) [Example 1282] are 5.2 µM, 1400 nM and 2100 nM.
As for `CC(c1cc(C(C)(C)C)on1)N1C[C@H](C)N(c2cc(=O)n(C)c3ccc(C#N)nc23)C[C@H]1C` (single isomer, unassigned) [Example 1283], in the test with Human venous whole blood (Homo sapiens, 24 h), the EC50 amounted to 4 µM. For the same compound, the IC50 came out at 4100 nM at human DGKα and 7600 nM on human DGKζ.
Regarding `C[C@@H]1CN(c2cc(=O)n(C)c3ccc(C#N)nc23)[C@@H](C)CN1C(c1ccc(Cl)cc1)c1nc(C2CC2)no1` (single isomer, unassigned) [Example 1285], the EC50 in the test on Human venous whole blood was determined as 0.092 µM. For the same compound, the IC50 is 26 nM on human DGKα and 17 nM at human DGKζ.
On the same counts, the results for `C[C@@H]1CN(c2cc(=O)n(C)c3ccc(C#N)nc23)[C@@H](C)CN1C(c1ccc(Cl)cc1)c1nc(C2CC2)no1` (single isomer, unassigned) [Example 1286] are 0.27 µM, 38 nM and 100 nM.
On to `C[C@@H]1CN(c2cc(=O)n(C)c3ccc(C#N)nc23)[C@@H](C)CN1C(c1ccc(F)cc1)c1ccc(P(C)(C)=O)cc1` (single isomer, unassigned) [Example 1292], for which, in the test with Human venous whole blood (Homo sapiens, 24 h), the EC50 was determined as 12 µM. The IC50 on human DGKα stood at 8000 nM; at human DGKζ, 4100 nM.
Consider `CC(=O)N1CC(c2noc(C(c3ccc(F)cc3)N3C[C@H](C)N(c4cc(=O)n(C)c5ccc(C#N)nc45)C[C@H]3C)n2)C1` (single isomer, unassigned) [Example 1296], for which, in the test with Human venous whole blood (Homo sapiens, 24 h), the EC50 amounted to 20 µM. For the same compound, the IC50 at human DGKα was determined as 2400 nM; on human DGKζ, 5000 nM.
On the same counts, the results for `CC(=O)N1CC(c2noc(C(c3ccc(F)cc3)N3C[C@H](C)N(c4cc(=O)n(C)c5ccc(C#N)nc45)C[C@H]3C)n2)C1` (single isomer, unassigned) [Example 1297] are 2.7 µM, 220 nM and 92 nM.
`C[C@@H]1CN(c2cc(=O)n(C)c3ccc(C#N)nc23)[C@@H](C)CN1C(c1ccc(F)cc1)c1nc(C2CN(C)C2)no1` (single isomer, unassigned) [Example 1298]: the EC50 in the test with Human venous whole blood (Homo sapiens, 24 h) is 13 µM. The IC50 at human DGKα was found to be 2600 nM; at human DGKζ, 2700 nM.
As to `C[C@@H]1CN(c2cc(=O)n(C)c3ccc(C#N)nc23)[C@@H](C)CN1C(c1ccc(F)cc1)c1nc(C2CN(C)C2)no1` (single isomer, unassigned) [Example 1299], the EC50 in the test on Human venous whole blood stood at 15 µM. Besides, the IC50 was found to be 89000 nM on human DGKα and 26000 nM at human DGKζ.
For the compound `C[C@@H]1CN(c2cc(=O)n(C)c3ccc(C#N)nc23)[C@@H](C)CN1C(c1ccc(F)cc1)C1CCS(=O)(=O)CC1` (single isomer, unassigned) [Example 1300], in the test with Human venous whole blood (Homo sapiens, 24 h), the EC50 came out at 7 µM. Besides, the IC50 on human DGKα was determined as 14000 nM; at human DGKζ, 1800 nM.
As to `COCCOc1cc(C(C)N2C[C@H](C)N(c3cc(=O)n(C)c4ccc(C#N)nc34)C[C@H]2C)ccc1OC` (single isomer, unassigned) [Example 1302], the EC50 in the test with Human venous whole blood (Homo sapiens, 24 h) was 20 µM. Besides, the IC50 on human DGKα was 130000 nM; on human DGKζ, 6600 nM.
`COCCOc1cc(C(C)N2C[C@H](C)N(c3cc(=O)n(C)c4ccc(C#N)nc34)C[C@H]2C)ccc1OC` (single isomer, unassigned) [Example 1303]: in the test on Human venous whole blood (Homo sapiens, 24 h), the EC50 worked out at 20 µM. Further, the results for the IC50 at human DGKα and on human DGKζ were 65000 nM and 2900 nM, respectively.
On the same counts, the results for `CC(c1nc(C2CC2)no1)N1C[C@H](C)N(c2c(C#N)c(=O)n(C)c3ccc(C#N)nc23)C[C@H]1C` (single isomer, unassigned) [Example 1306] are 2.9 µM, 9400 nM and 1100 nM.
Turning to `CC(c1nc(C2CC2)no1)N1C[C@H](C)N(c2c(C#N)c(=O)n(C)c3ccc(C#N)nc23)C[C@H]1C` (single isomer, unassigned) [Example 1307], the EC50 in the test on Human venous whole blood (Homo sapiens, 24 h) was 20 µM. Moreover, the IC50 at human DGKα was determined as 5600 nM; on human DGKζ it was 14000 nM.
Consider `C[C@@H]1CN(c2cc(=O)n(C)c3ccc(C#N)nc23)[C@@H](C)CN1C(c1ccc(F)cc1)C(C)(C)O` (single isomer, unassigned) [Example 1308], for which, in the test on Human venous whole blood, the EC50 amounted to 2.1 µM. Moreover, the IC50 on human DGKα came to 20000 nM; at human DGKζ, 2200 nM.
On the same counts, the results for `C[C@@H]1CN(c2cc(=O)n(C)c3ccc(C#N)nc23)[C@@H](C)CN1C(c1ccc(F)cc1)C(C)(C)O` (single isomer, unassigned) [Example 1309] are 7.9 µM, 4600 nM and 13000 nM.
As to `C[C@@H]1CN(c2cc(=O)n(C)c3ccc(C#N)nc23)[C@@H](C)CN1C(c1ccc(F)cc1)C(F)(F)CO` (single isomer, unassigned) [Example 1310], in the test with Human venous whole blood (Homo sapiens, 24 h), the EC50 was found to be 3.6 µM. The figures for the IC50 at human DGKα and on human DGKζ were 6200 nM and 7500 nM, respectively.
In the same order, the values of `C[C@@H]1CN(c2cc(=O)n(C)c3ccc(C#N)nc23)[C@@H](C)CN1C(c1ccc(F)cc1)C(F)(F)CO` (single isomer, unassigned) [Example 1311] are 11 µM, 120000 nM and 19000 nM.
For the compound `COCC(F)(F)C(c1ccc(F)cc1)N1C[C@H](C)N(c2cc(=O)n(C)c3ccc(C#N)nc23)C[C@H]1C` (single isomer, unassigned) [Example 1312], the EC50 with Human venous whole blood (Homo sapiens, 24 h) is 0.33 µM. In addition, the IC50 at human DGKα is 100 nM; at human DGKζ, 150 nM.
